Measured values published in ChEMBL document CHEMBL4373717, “Coumarin-containing hybrids and their anticancer activities” (Eur J Med Chem, 2019).
In brackets after ≈: the same amount, converted by molar mass.

Experiments:
[1] = test system: Ishikawa; experiment: Cytotoxicity against human Ishikawa cells assessed as reduction in cell viability; type: functional, cell-based
[2] = test system: MDA-MB-231; experiment: Cytotoxicity against human MDA-MB-231 cells assessed as reduction in cell viability; type: functional, cell-based
[3] = test system: MCF7; experiment: Cytotoxicity against human MCF7 cells assessed as reduction in cell viability; type: functional, cell-based
[4] = test system: HCT-116; experiment: Cytotoxicity against human HCT116 cells assessed as reduction in cell viability after 96 hrs by MTT assay; type: functional, cell-based; details: HCT-116, 96 h
[5] = test system: MDA-MB-231; experiment: Cytotoxicity against human MDA-MB-231 cells assessed as reduction in cell viability after 96 hrs by MTT assay; type: functional, cell-based; details: MDA-MB-231, 96 h
[6] = test system: HT-29; experiment: Cytotoxicity against human HT-29 cells assessed as reduction in cell viability after 96 hrs by MTT assay; type: functional, cell-based; details: HT-29, 96 h
[7] = test system: OVCAR-3; experiment: Anticancer activity against human OVCAR3 cells by CCK8 assay; type: functional, cell-based
[8] = test system: A2780; experiment: Anticancer activity against human A2780 cells by CCK8 assay; type: functional, cell-based
[9] = test system: Hep 3B2; experiment: Anticancer activity against human Hep3B cells by CCK8 assay; type: functional, cell-based
[10] = test system: HepG2; experiment: Anticancer activity against human HepG2 cells by CCK8 assay; type: functional, cell-based
[11] = test system: DLD-1; experiment: Cytotoxicity against human DLD1 cells assessed as reduction in cell viability; type: functional, cell-based
[12] = target: Vascular endothelial growth factor receptor 2 (Homo sapiens, UniProt P35968); experiment: Inhibition of VEGFR2 (unknown origin)
[13] = test system: MCF7; experiment: Cytotoxicity against human MCF7 cells assessed as reduction in cell viability by MTT assay; type: functional, cell-based; details: for IC50: Homo sapiens, MCF7
[14] = test system: MCF7; experiment: Potency index, ratio of methotrexate IC50 to compound IC50 for cytotoxicity against human MCF7 cells assessed as reduction in cell viability; type: functional
[15] = test system: COS-7; experiment: Cytotoxicity against African green monkey COS7 cells assessed as reduction in cell viability by MTT assay; type: functional, cell-based; details: Chlorocebus aethiops
[16] = Toxicity in mouse assessed as mouse survival (reference value: 14.5 days); details: in vivo, 348 h
[17] = test system: HeLa; experiment: Cytotoxicity against human HeLa cells assessed as reduction in cell viability by MTT assay; type: functional, cell-based
[18] = test system: BT-20; experiment: Cytotoxicity against human BT20 cells assessed as reduction in cell viability after 24 hrs by MTT assay; type: functional, cell-based; details: BT-20, 24 h
[19] = test system: A549; experiment: Cytotoxicity against human A549 cells assessed as reduction in cell viability after 24 hrs by MTT assay; type: functional, cell-based; details: A549, 24 h
[20] = test system: SK-MEL-28; experiment: Cytotoxicity against human SK-MEL-28 cells assessed as reduction in cell viability after 24 hrs by MTT assay; type: functional, cell-based; details: SK-MEL-28, 24 h
[21] = test system: DU-145; experiment: Cytotoxicity against human DU145 cells assessed as reduction in cell viability after 24 hrs by MTT assay; type: functional, cell-based; details: DU-145, 24 h
[22] = test system: HeLa; experiment: Cytotoxicity against human HeLa cells assessed as reduction in cell viability after 72 hrs by MTT assay; type: functional, cell-based
[23] = test system: Caco-2; experiment: Cytotoxicity against human Caco2 cells assessed as reduction in cell viability after 72 hrs by MTT assay; type: functional, cell-based; details: Caco-2, 72 h
[24] = test system: K562; experiment: Cytotoxicity against human K562 cells assessed as reduction in cell viability after 72 hrs by MTT assay; type: functional, cell-based; details: K562, 72 h
[25] = test system: A549; experiment: Cytotoxicity against human A549 cells assessed as reduction in cell viability by MTT assay; type: functional, cell-based
[26] = test system: PANC-1; experiment: Cytotoxicity against human PANC1 cells assessed as reduction in cell viability by MTT assay; type: functional, cell-based
[27] = test system: HepG2; experiment: Cytotoxicity against human HepG2 cells assessed as reduction in cell viability by MTT assay; type: functional, cell-based
[28] = test system: HT-29; experiment: Cytotoxicity against human HT-29 cells assessed as reduction in cell viability by MTT assay; type: functional, cell-based
[29] = test system: PC-3; experiment: Cytotoxicity against human PC3 cells assessed as reduction in cell viability by MTT assay; type: functional, cell-based
[30] = test system: HeLa; experiment: Cytotoxicity against human HeLa cells assessed as reduction in cell viability after 24 hrs by MTT assay; type: functional, cell-based
[31] = test system: L02; experiment: Cytotoxicity against human L02 cells assessed as reduction in cell viability after 24 hrs by MTT assay; type: cell-based; details: L02, 24 h
[32] = test system: MDA-MB-231; experiment: Cytotoxicity against human MDA-MB-231 cells assessed as reduction in cell viability after 24 hrs by MTT assay; type: functional, cell-based; details: Homo sapiens, MDA-MB-231, 24 h
[33] = test system: HEK-293T; experiment: Cytotoxicity against HEK293T cells assessed as reduction in cell viability after 24 hrs by MTT assay; type: cell-based; details: Homo sapiens
[34] = test system: MCF7; experiment: Cytotoxicity against human MCF7 cells assessed as reduction in cell viability after 24 hrs by MTT assay; type: functional, cell-based; details: MCF7, 24 h

Vascular endothelial growth factor receptor 2, sequence (P35968 whole entry): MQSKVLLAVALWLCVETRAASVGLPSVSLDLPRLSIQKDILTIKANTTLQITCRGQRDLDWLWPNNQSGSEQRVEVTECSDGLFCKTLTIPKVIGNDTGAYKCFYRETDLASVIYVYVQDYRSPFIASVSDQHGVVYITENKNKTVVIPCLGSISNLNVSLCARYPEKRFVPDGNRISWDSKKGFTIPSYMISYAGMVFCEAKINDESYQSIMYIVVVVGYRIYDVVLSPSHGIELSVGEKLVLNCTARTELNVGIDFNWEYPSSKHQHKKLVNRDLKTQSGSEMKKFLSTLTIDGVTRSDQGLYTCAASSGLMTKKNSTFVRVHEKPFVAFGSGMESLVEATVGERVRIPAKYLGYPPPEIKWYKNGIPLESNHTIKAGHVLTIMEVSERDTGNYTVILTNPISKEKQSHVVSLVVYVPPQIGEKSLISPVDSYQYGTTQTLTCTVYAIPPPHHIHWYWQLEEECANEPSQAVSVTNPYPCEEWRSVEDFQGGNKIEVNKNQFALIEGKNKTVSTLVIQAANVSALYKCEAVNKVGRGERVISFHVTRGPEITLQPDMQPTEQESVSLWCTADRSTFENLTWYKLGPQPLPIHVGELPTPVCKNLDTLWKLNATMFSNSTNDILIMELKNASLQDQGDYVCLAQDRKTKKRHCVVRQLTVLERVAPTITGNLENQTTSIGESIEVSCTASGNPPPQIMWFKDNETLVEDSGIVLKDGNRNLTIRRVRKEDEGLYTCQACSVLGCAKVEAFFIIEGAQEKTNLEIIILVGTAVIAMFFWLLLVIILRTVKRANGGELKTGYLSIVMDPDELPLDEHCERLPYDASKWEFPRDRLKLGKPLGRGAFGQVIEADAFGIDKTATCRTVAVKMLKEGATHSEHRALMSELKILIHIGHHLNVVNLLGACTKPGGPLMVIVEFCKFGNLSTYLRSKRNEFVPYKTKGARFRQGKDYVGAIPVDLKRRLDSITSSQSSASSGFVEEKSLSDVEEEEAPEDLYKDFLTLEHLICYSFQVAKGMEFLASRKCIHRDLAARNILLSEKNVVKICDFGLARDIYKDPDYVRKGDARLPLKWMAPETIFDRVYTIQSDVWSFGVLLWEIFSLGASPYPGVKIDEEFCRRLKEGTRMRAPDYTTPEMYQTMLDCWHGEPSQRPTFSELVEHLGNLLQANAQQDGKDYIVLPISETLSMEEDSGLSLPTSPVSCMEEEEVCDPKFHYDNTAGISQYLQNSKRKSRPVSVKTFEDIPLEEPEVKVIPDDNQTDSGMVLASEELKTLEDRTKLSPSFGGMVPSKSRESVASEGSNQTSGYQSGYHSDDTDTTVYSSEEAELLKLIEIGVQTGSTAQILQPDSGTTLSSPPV

`CCOC(=O)c1cc2cc(-c3nc4cc(C)ccn4c3NC(C)(C)C)cc(C(C)C)c2oc1=O` showed an IC50 [1] of 14.1 to 50 µM, an IC50 [2] of 14.1 to 50 µM and an IC50 [3] of 14.1 to 50 µM.

Compound `Cc1ccc2oc(=O)cc(Cn3cc(CO[C@H]4O[C@@H]5O[C@@]6(C)CC[C@H]7[C@H](C)CC[C@@H]([C@H]4C)[C@@]57OO6)nn3)c2c1` has an IC50 [4] of 8.57 to 100 µM, an IC50 [5] of 8.57 to 100 µM and an IC50 [6] of 8.57 to 100 µM.

Work on `CCN(CC)c1ccc2cc(C(=O)N3CCN(C(=O)CN4CCN(CCC[C@H]5O[C@@H]6O[C@@]7(C)CC[C@H]8[C@H](C)CC[C@@H]([C@H]5C)[C@@]68OO7)CC4)CC3)c(=O)oc2c1` yielded an IC50 [7] of 2.33 to 23.7 µM, an IC50 [8] of 2.33 to 23.7 µM and an IC50 [9] of 2.33 to 23.7 µM. The IC50 [10] was 2.33 to 23.7 µM.

`CN(C)c1ccc(C2CC(c3c(O)c4ccccc4oc3=O)=NN2c2nc(-c3ccccc3)c(/N=N/c3ccc(Cl)cc3)s2)cc1` (centres undefined) gave an IC50 [11] of 114 to 129 µM, an IC50 [12] of 5.41 µM and an IC50 [3] of 5.41 to 6.56 µM.

In the case of `COC(=O)c1cc2cc(-c3nc4cc(C)ccn4c3NC(C)(C)C)cc(C(C)C)c2oc1=O`, the IC50 [1] is reported as 14.1 to 42.6 µM, the IC50 [2] is reported as 14.1 to 42.6 µM and the IC50 [3] is reported as 14.1 to 42.6 µM.

For `CCN(C)S(=O)(=O)c1ccc(/C(C)=N/NC(=O)c2cc(=O)oc3ccccc23)cc1`, the IC50 [13] was 2.53 µM and the “Ratio IC50” value [14] was 10.7.

`CCN(CC)c1ccc2cc(C(=O)NCCNC(=O)CN3CCN(CCC[C@H]4O[C@@H]5O[C@@]6(C)CC[C@H]7[C@H](C)CC[C@@H]([C@H]4C)[C@@]57OO6)CC3)c(=O)oc2c1` gave an IC50 [7] of 2.33 to 23.7 µM, an IC50 [8] of 2.33 to 23.7 µM and an IC50 [9] of 2.33 to 23.7 µM. The IC50 [10] was 2.33 to 23.7 µM.

Work on `O=c1oc2ccccc2cc1-c1csc(N/N=C/c2c3ccccc3c(Cl)c3ccccc23)n1` yielded an IC50 [15] of 1.29 to 1.96 µM, a Survival [16] of 45.5 days and an IC50 [17] of 1.29 to 1.96 µM. The IC50 [3] was 1.29 to 1.96 µM.

Compound `O=c1oc2ccccc2cc1-c1csc(N/N=C/c2cc([N+](=O)[O-])ccc2Cl)n1` has an IC50 [15] of 1.29 to 1.96 µM, a Survival [16] of 39.3 days and an IC50 [17] of 1.29 to 1.96 µM. It also gave an IC50 [3] of 1.29 to 1.96 µM.

In the case of `CCN(CC)c1ccc2cc(C(=O)NNC(=O)Cn3nc(Cc4cccc(Br)c4)[nH]c3=O)c(=O)oc2c1`, the IC50 [18] is reported as 3.1 to 37.9 µg/mL (≈ 5.44 to 66.6 µM), the IC50 [19] is reported as 3.1 to 37.9 µg/mL and the IC50 [20] is reported as 3.1 to 37.9 µg/mL (≈ 5.44 to 66.6 µM). It also gave an IC50 [21] of 3.1 to 37.9 µg/mL (≈ 5.44 to 66.6 µM).

`COc1ccccc1-c1cn(Cc2cc(=O)oc3cc(O)c(O)cc23)nn1` showed an IC50 [22] of 9.7 to 81.9 µM, an IC50 [23] of 9.7 to 81.9 µM and an IC50 [24] of 9.7 to 81.9 µM.

For `COc1cc(Cl)ccc1NS(=O)(=O)c1ccc2oc(=O)ccc2c1`, the IC50 [25] was 4.63 to 7.02 µM, the IC50 [26] was 4.63 to 7.02 µM and the IC50 ([27]; Homo sapiens, HepG2) was 4.63 to 7.02 µM.

`CCN(CC)c1ccc2cc(C(=O)NNC(=O)Cn3nc(Cc4ccc(Cl)c(Cl)c4)[nH]c3=O)c(=O)oc2c1` gave an IC50 [18] of 3.1 to 37.9 µg/mL (≈ 5.54 to 67.7 µM), an IC50 [19] of 3.1 to 37.9 µg/mL and an IC50 [20] of 3.1 to 37.9 µg/mL (≈ 5.54 to 67.7 µM). The IC50 [21] was 3.1 to 37.9 µg/mL (≈ 5.54 to 67.7 µM).

For `Cc1cc(=O)oc2cc(NC(=O)CNCc3cccnc3)ccc12`, the IC50 [13] was 69.1 to 378 µM and the IC50 [25] was 69.1 to 378 µM.

With `COc1ccc2oc(=O)c(/C=C3\SC(=O)N(C(=O)c4ccc(Cl)cc4)C3=O)cc2c1` the IC50 [13] was 0.95 to 3.2 µM, the IC50 [25] was 0.95 to 3.2 µM and the IC50 [28] was 0.95 to 3.2 µM. For the same compound, the IC50 [29] was 0.95 to 3.2 µM and the IC50 [17] was 0.95 to 3.2 µM.

With `O=c1ccc2ccccc2o1` [COUMARIN] the IC50 [7] was > 100 µM, the IC50 [8] was > 100 µM and the IC50 [9] was > 100 µM. For the same compound, the IC50 [10] was > 100 µM.

With `O=c1[nH]cc(F)c(=O)[nH]1` [FLUOROURACIL] the “growth inhibition (GI)” value [13] was 11.55 - 95.52%, the Survival [16] was 49 days and the “growth inhibition (GI)” value [27] was 11.55 - 95.52%.

With `CC(C)=CC[C@@H](O)C1=CC(=O)c2c(O)ccc(O)c2C1=O` [SHIKONIN] the IC50 [30] was 6.5 to 10.4 µM, the IC50 [19] was 6.5 to 10.4 µM and the IC50 [31] was 6.22 µM. For the same compound, the IC50 [32] was 6.5 to 10.4 µM, the IC50 [33] was 1.52 µM and the IC50 [34] was 6.5 to 10.4 µM.
